According to patent US10927076B2, “HSP90B N-terminal isoform-selective inhibitors” (priority 2017, dated 2021):
Like-named read-outs stand apart in the source and are kept apart here.

Columns and labels:
MCF-7 = test: Anti-proliferation activity; type: cell-based; settings: Homo sapiens, MCF7
SkBr3 = test: Anti-proliferation activity; type: cell-based; settings: Homo sapiens, SK-BR-3
NCI-H23 cells = test: Anti-proliferation assay (MTS/PMS, 72 h); type: cell-based; settings: Homo sapiens, non-small cell lung cancer
Experimental: Cells were grown to confluence and seeded at 2000 cells/well/0.1 mL in a 96-well plate and placed back in the incubator for 24 h. Compounds or vehicle were administered at the desired concentrations (1% DMSO final concentration) and incubated for 72 h. The % viable cells was determined using the MTS/PMS cell proliferation kit (Promega) per the manufacturer's instructions. Cells treated with vehicle were normalized to 100% proliferation and values adjusted accordingly.

Hsp90α = Hsp90α (Homo sapiens (Human), UniProt P07900); test: Fluorescence polarization assay (FITC-GDA tracer displacement); type: binding
Experimental: (§1) Florescence Polarization.
(§2) Assay was performed in 96-well format in black, flat bottom plates (Santa Cruz Biotechnology) with a final volume of 100 μL. […] Compounds were tested in triplicate wells (1% DMSO final concentration). For each plate, wells containing buffer only (background), tracer in buffer only (low polarization control), and protein and tracer in buffer with 1% DMSO (highpolarization control) were included. Plates were incubated at 4° C. with rocking for 24 h. […] Polarization values were correlated to % tracer bound and compound concentrations. The concentration at which the tracer was 50% displaced by the inhibitor was determined using Graphpad Prism.

Hsp90β = Hsp90β (Homo sapiens (Human), UniProt P08238); test: as above; type: binding; settings: for Selectivity: Hsp90β over Hsp90α
Hsp90β, sequence (P08238 whole entry): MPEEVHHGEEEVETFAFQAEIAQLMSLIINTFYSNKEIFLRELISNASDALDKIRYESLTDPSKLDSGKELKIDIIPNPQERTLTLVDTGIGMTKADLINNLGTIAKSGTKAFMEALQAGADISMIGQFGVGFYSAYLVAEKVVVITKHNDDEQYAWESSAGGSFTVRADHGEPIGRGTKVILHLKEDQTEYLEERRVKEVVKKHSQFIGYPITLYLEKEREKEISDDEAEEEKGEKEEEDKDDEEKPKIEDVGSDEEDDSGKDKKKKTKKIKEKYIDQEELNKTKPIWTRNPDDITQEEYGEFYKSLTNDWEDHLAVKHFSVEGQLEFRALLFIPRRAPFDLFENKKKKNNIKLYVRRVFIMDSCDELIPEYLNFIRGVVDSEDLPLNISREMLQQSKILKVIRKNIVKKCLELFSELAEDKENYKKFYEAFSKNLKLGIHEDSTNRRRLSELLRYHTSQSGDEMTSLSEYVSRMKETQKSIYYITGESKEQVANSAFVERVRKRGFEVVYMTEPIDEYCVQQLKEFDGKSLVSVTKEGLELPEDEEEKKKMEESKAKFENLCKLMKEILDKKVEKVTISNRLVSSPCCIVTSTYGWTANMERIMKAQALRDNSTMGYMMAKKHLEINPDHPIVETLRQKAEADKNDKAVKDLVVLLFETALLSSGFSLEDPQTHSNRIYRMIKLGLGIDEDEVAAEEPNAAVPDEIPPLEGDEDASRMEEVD
Experimental: as §1, §2

Grp94 = test: as above; type: binding
Experimental: as §1, §2

[1] = fluorescence polarization, read-out: Kd Hsp90β

SMILES	Kd (Hsp90α; fluorescence polarization) [µM]	Kd (Hsp90β; [1]) [µM]	other results
CC(C)c1cc(C(=O)N2Cc3ccccc3C2)c(O)c2cnoc12			IC50 (MCF-7): 28.3 ± 1.47 µM; IC50 (SkBr3): 38.2 ± 2.75 µM
CC(C)c1cc(C(=O)N2Cc3ccc(F)cc3C2)c(O)c2cnoc12			IC50 (NCI-H23 cells): 5.76 µM; IC50 (MCF-7): 16.6 µM
CC(C)c1cc(C(=O)N2Cc3ccc(F)cc3C2)c(O)c(CO)c1O			IC50 (NCI-H23 cells): 2.13 ± 0.7 µM; IC50 (MCF-7): 13.2 µM
CC(C)c1cc(C(=O)N2Cc3ccccc3C2)c(O)c2[nH]ncc12			IC50 (NCI-H23 cells): 13.7 µM; IC50 (MCF-7): 19.1 µM; IC50 (SkBr3): 29.7 µM
O=C(c1cc(Br)c2cn[nH]c2c1O)N1Cc2ccccc2C1			IC50 (NCI-H23 cells): 13.4 µM; IC50 (SkBr3): 23.6 µM
CC(C)c1cc(C(=O)N2Cc3ccccc3C2)c(O)cc1CBr [Br]	4.98 ± 0.97	0.73 ± 0.11	
CCc1cc(O)c(C(=O)N2Cc3ccccc3C2)cc1C(C)C [CH3]	> 50	> 50	
CC(C)c1cc(C(=O)N2Cc3ccccc3C2)c(O)cc1C=O [CHO]			Kd (Hsp90α): 1.21 ± 0.12 µM
CC(C)c1cc(C(=O)N2Cc3ccccc3C2)c(O)cc1CC#N [CN]	2.28 ± 0.12		
CC(C)c1cc(C(=O)N2Cc3ccccc3C2)c(O)cc1CCl [Cl]	> 100	25.2 ± 1.45	
CC(C)c1ccc(O)c(C(=O)N2Cc3ccccc3C2)c1 [Compound 1]	3.21	1.63	selectivity for Hsp90β over Hsp90α (Hsp90β): ~2 fold
CC(C)c1cc(C(=O)N2Cc3ccccc3C2)c(O)cc1CC#N [Compound 2, 2-(5-Hydroxy-4-(isoindoline-2-carbonyl)-2-isopropylphenyl)acetonitrile]		0.97	selectivity for Hsp90β over Hsp90α (Hsp90β): ~2.5 fold
COCc1cc(O)c(C(=O)N2Cc3ccccc3C2)cc1C(C)C [Compound 3, (2-Hydroxy-5-isopropyl-4-(methoxymethyl)phenyl)(isoindolin-2-yl)methanone]			binding to Hsp90α (Hsp90α; at 10 μM): did not bind; binding to Hsp90β (Hsp90β; at 10 μM): did not bind
CC(C)c1cc(C(=O)N2Cc3ccccc3C2)c(O)cc1C=O [Compound 4, 5-Hydroxy-4-(isoindoline-2-carbonyl)-2-isopropylbenzaldehyde]			Kd (Hsp90α): 1.55 µM
CC(C)c1cc(C(=O)N2Cc3ccccc3C2)c(O)c(C=O)c1O [KUNB1, 2,6-Dihydroxy-3-(isoindoline-2-carbonyl)-5-isopropylbenzaldehyde]		≥ 100	
C=Cc1c(O)c(C(=O)N2Cc3ccccc3C2)cc(C(C)C)c1O [KUNB2, (2,4-Dihydroxy-5-isopropyl-3-vinylphenyl)(isoindolin-2-yl)methanone]		5.24	
CCc1c(O)c(C(=O)N2Cc3ccccc3C2)cc(C(C)C)c1O [KUNB3, (3-Ethyl-2,4-dihydroxy-5-isopropylphenyl)(isoindolin-2-yl)methanone]		3.31	
CC(C)c1cc(C(=O)N2Cc3ccccc3C2)c(O)c(CN)c1O [KUNB4, (3-(Aminomethyl)-2,4-dihydroxy-5-isopropylphenyl)(isoindolin-2-yl)methanone]			Kd (Hsp90β): ≥ 100 µM
CCCc1c(O)c(C(=O)N2Cc3ccccc3C2)cc(C(C)C)c1OCOC [KUNB5, (2-Hydroxy-5-isopropyl-4-(methoxymethoxy)-3-propylphenyl)(isoindolin-2-yl)methanone]			Kd (Hsp90β): 6.3 µM

SMILES	Kd (Hsp90α; fluorescence polarization) [µM]	Kd (Hsp90β; [1]) [µM]	other results
C=CCc1c(O)c(C(=O)N2Cc3ccccc3C2)cc(C(C)C)c1OCOC [KUNB6, (3-Allyl-2-hydroxy-5-isopropyl-4-(methoxymethoxy)phenyl)(isoindolin-2-yl)methanone]			Kd (Hsp90β): ≥ 100 µM
COCOc1c(C(C)C)cc(C(=O)N2Cc3ccccc3C2)c(O)c1CCO [KUNB7, (2-Hydroxy-3-(2-hydroxyethyl)-5-isopropyl-4-(methoxymethoxy)phenyl) (isoindolin-2-yl)methanone]			Kd (Hsp90β): ≥ 100 µM
CC(C)c1cc(C(=O)N2Cc3ccccc3C2)c(O)c(CO)c1O [KUNB14, (2,4-Dihydroxy-3-(hydroxymethyl)-5-isopropylphenyl)(isoindolin-2-yl)methanone]		4.27	
CC(C)c1cc(C(=O)N2Cc3ccccc3C2)c(O)c2c1C1C=NNC1O2 (stereo not drawn) [KUNB17]	≥ 10	0.72	Selectivity (Hsp90β): ≥14
CC(C)c1cc(C(=O)N2Cc3ccccc3C2)c(O)c2cn[nH]c12 [KUNB18]	82.5	3.71	Selectivity (Hsp90β): 22
CC(C)c1cc(C(=O)N2Cc3ccccc3C2)c(O)c2nc[nH]c12 [KUNB19]	≥ 100	6.3	Selectivity (Hsp90β): 1.6
CC(C)c1cc(C(=O)N2Cc3ccccc3C2)c(O)c2c1CCC2=O [KUNB22]	9.3	0.11	Selectivity (Hsp90β): 85
CCC1Cc2c(C(C)C)cc(C(=O)N3Cc4ccccc4C3)c(O)c2C1=O (stereo not drawn) [KUNB23]	≥ 10	0.58	Selectivity (Hsp90β): ≥17
CCCC1Cc2c(C(C)C)cc(C(=O)N3Cc4ccccc4C3)c(O)c2C1=O (stereo not drawn) [KUNB24]	≥ 100	2.7	Selectivity (Hsp90β): ≥37
CC(C)c1cc(C(=O)N2Cc3ccccc3C2)c(O)c2c1CNC2=O [KUNB25]	≥ 10	0.33	Selectivity (Hsp90β): ≥30
CCN1Cc2c(C(C)C)cc(C(=O)N3Cc4ccccc4C3)c(O)c2C1=O [KUNB26]	≥ 10	0.53	Selectivity (Hsp90β): ≥19
CC1Cc2c(C(C)C)cc(C(=O)N3Cc4ccccc4C3)c(O)c2C1=O (stereo not drawn) [KUNB28]	≥ 10	0.295	Selectivity (Hsp90β): ≥34
CC(C)c1cc(C(=O)N2Cc3ccc(F)cc3C2)c2oncc2c1O [KUNB31b, (5-fluoroisoindolin-2-yl)(4-hydroxy-5-isopropylbenzo[d]isoxazol-7-yl)methanone]			selectivity for Hsp90β over Grp94 (Grp94): ~50 fold; selectivity for Hsp90β over Hsp90α (Hsp90β): ~50 fold
CC(C)c1cc(C(=O)N2Cc3ccccc3C2)c(O)cc1N [NH2]	0.46 ± 0.22	0.71	
CNCc1cc(O)c(C(=O)N2Cc3ccccc3C2)cc1C(C)C [NHCH3]	> 100	23.2 ± 1.07	
CC(C)c1cc(C(=O)N2Cc3ccccc3C2)c(O)cc1CO [OH]	4.21 ± 0.62	1.97 ± 0.07	
COCc1cc(O)c(C(=O)N2Cc3ccccc3C2)cc1C(C)C [OMe]	> 50	> 50	
CC(C)c1cc(C(=O)N2Cc3ccccc3C2)c(O)c(CO)c1O [drawing 45]			IC50 (NCI-H23 cells): 3.9 ± 0.33 µM; IC50 (MCF-7): 13.7 ± 1.46 µM; IC50 (SkBr3): 9.13 ± 1.03 µM
